{
  "source": "patent US20040054001A1",
  "about": "“Fumaric acid derivatives as nf-kappab inhibitors” (priority 2001, published 2004)",
  "origin": "cited, not measured here",
  "system": "Ehrlich ascites tumour",
  "conditions": "mice; cited from earlier work",
  "data": [
    {"smiles": "O=C(O)/C=C/C(=O)O", "note": "[fumaric acid]", "values": [
      {"measurement": "growth of the Ehrlich ascites tumour", "value": "inhibits"}
    ]}
  ]
}
